Laboratory results taken from patent US20020091131A1, “Epoxysuccinamide derivatives” (priority 1997, published 2002).
pIC50: −log10 of the molar value.

Assays:
[1] = tested on: rats grown with low calcium feed (bone resorption); assay: Bone resorption inhibitory activity by decrease of plasma calcium concentration in rats grown with low calcium feed; format: in vivo, rat; conditions: Wistar rats on low calcium feed, 6 hours after administration, vs non-administration group
Description: (1) If rats are grown with low calcium feed, its bone weight decreases. This is because calcium is left from bone by dissolution in blood (i.e., bone resorption) so as to maintain the calcium concentration in blood at a normal level. Therefore, compounds inhibiting bone resorption in the model adopted in this experiment inhibit dissolution of calcium in blood from bone to reduce the plasma calcium concentration. Thus, compounds of the invention were evaluated in their bone resorption inhibitory activity by measuring decrease of plasma calcium concentration in the following experiment (according to J. M. Delaisse et al., Biochem. Biophys. Res. Commun., 125, 441 (1984)
Rats of Wistar strain (age: 5 to 6 weeks) were grown with a low calcium content feed (Ca: 0.02S, available from Oriental Yeast Industries, Co., Ltd.) for one week to give bone resorption-enhanced condition A test compound was dissolved in aqueous 1 nethylcellulose solution (when the test compound was-hydrophobic, Tween 20, nonionic-surfactant, was added), and administered orally to the rat in a dosage of 0.2 mL/100 g (weight of rat) At 6 hours after the administration, blood was taken from tail vein of the rat Then, the plasma calcium concentration was measured by OCPC method,
The plasma calcium concentration decreasing activity (Ca decrease rate) of the test compound was calculated by the following equation:
Ca decrease rate (%)=100×(plasma calcium concentration at 6 hours after administration of test compound)−(plasma calcium concentration at the same time in non-administration group)/(plasma calcium concentration at the same time in non-administration group)

Cathepsin B = target: T1, Cathepsin B (Rattus norvegicus, UniProt P00787); assay: Cathepsin B inhibitory action (lysosome fraction, Z-Arg-Arg-MCA); format: biochemical; conditions: pH 6.0, 30° C., read-out: Cathepsin Inhibition (IC50) Cathepsin B
T1 construct: from tissue; host or cells: liver of male Wistar rat, crude lysosome fraction
T1 sequence (P00787 80-333): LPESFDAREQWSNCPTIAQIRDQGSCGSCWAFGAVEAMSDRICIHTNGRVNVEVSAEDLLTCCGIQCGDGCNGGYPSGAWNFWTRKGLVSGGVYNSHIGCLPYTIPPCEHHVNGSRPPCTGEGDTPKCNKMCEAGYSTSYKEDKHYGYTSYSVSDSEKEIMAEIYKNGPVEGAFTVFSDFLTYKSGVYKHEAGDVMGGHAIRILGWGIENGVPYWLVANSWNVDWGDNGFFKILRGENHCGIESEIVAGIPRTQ
Description: (§1) Male rat of Wistar strain was killed by exsanguination and a ice-chilled physiological saline was introduced into portal vein for circulation Then, its liver was taken out. Thereafter, the following procedures were performed at 4°C.
(§2) The liver was minced by scissors. Five grams of minced liver were homogenized in a Potter type Teflon Homogenizer after addition of 9 volumes of 0.25 M sucrose. The homogenate was centrifuged at 800 G for 10 minutes. The resulting supernatant was further centrifuged at 12,000 G for 20 minutes. The precipitate was homogenized in 25 mL of 0.25 M sucrose, and then centrifuged at 12,000 G for 20 minutes. The resulting precipitate was further homogenized in 10 mL of 0.25 M sucrose. Thus, a lysosome fraction was obtained,
(§3) The lysosome fraction was diluted with 0.25M sucrose containing 0.336 of Triton X-100 for the use in the measurement of cathepsin L activity.
To 0.25 mL of a solution (pH: 6.0) containing 352 mM KH2PO4, 48 mM Na2HPO4, 5.32 mM EDTA·2Na and 10 mM L-cysteine were added 0.1 mL of the lysosome fraction, 5 μL of the test compound solution, and 0.545 mL of distilled water. The mixture was pre-incubated at 30° C. for 15 minutes. Thereafter, the reaction was started by the addition of 0.1 mL of a solution of 50 μM carbobenzoxy-L-arginine-L-arginine-4-methylcoumaryl-7-amide (Z-Arg-Arg-MCA, substrate). The reaction was performed at 30° C. for 20 minutes, and then terminated by addition of 1 mL of an aqueous solution (pH: 4.3) containing 100 mM sodium mono-chloroacetate, 30 mM sodium acetate and 70 mM acetic acid. The finally obtained solution was subjected to measurement of fluorescence strength (excitation wavelength: 380 nm, emission wavelength: 460 nm).

Cathepsin L = target: T2, Cathepsin L (Rattus norvegicus, UniProt P07154); assay: Cathepsin L inhibitory action (rat liver lysosome fraction, Z-Phe-Arg-MCA, in presence of CA-074); format: biochemical; conditions: pH 5.5, 30° C., with 10^-7 M CA-074, read-out: Cathepsin Inhibition (IC50) Cathepsin L
T2 construct: Thus, a lysosome fraction was obtained; from tissue; host or cells: liver of male Wistar rat, crude lysosome fraction
T2 sequence (P07154 114-334): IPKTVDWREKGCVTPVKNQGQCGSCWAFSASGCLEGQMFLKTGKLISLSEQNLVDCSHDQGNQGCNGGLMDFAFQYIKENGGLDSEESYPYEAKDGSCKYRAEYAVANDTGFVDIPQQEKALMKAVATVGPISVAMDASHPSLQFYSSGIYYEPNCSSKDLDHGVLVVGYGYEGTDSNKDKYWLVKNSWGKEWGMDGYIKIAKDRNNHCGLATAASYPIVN
Description: as §1, §2, §3
To 0.25 mL of a solution (pH: 5.5) containing 340 mM sodium acetate, 60 mM acetic acid, 4 mM EDTA and 8 mM dithiothreitol were added 0.1mL of the lysosome fraction, 5 μL of the test compound solution, and 0.545 mL of distilled water. The mixture was pre-incubated at 30° C. for 15 minutes. Thereafter, 0.1 mL of 50 μM by carbobenzoxy-L-phenylalanyl-L-arginine-4-methylcoumaryl-7-amide (Z-Phe-Arg-MCA) solution was added, and the reaction was started. The reaction was performed at 30° C. for 20 minutes, and then terminated by addition of 1mL of an aqueous solution (pH. 4.3) containing 100 mM sodium mono-chloroacetate, […] and 70 mM acetic acid The finally obtained solution was subjected to measurement of fluorescence strength (excitation wave-length: 380 nm, emission wavelength: 460 nm.
The Z-Phe-Arg-MCA is also decomposed by cathepsin B which is contained in the lysosome fraction.

Rat adjuvant arthritis = assay: Action on rat adjuvant arthritis (hind paw volume); format: in vivo; conditions: Wistar rats, 300 mg/kg orally once a day for 21 days, untreated hind paw, significant vs control, risk <1%
Description: Rat adjuvant arthritis which is considered as a model of rheumatoid arthritis of human being was employed for evaluation of the compound of the invention.
Male rats of Wistar strain (age: 5 weeks) were sensitized by subcutaneous injection of Mycobacterium Butyricum which was suspended in liquid paraffin into the right hind paw. From the next day, a test compound (the compound of the aforementioned Example 5) was orally administered at a dosage of 300 mg/kg once a day for 21 days (administration group: 8 rats). After the last administration was complete, a volume of the untreated hind paw was measured by means of Volume Differential Meter and compared with that of Control group (8 rats, non-administration group) In addition, a non-adjuvant treatment group (normal group: 8 rats) was subjected to the same measurement. Inhibition of expansion of the hind paw by the test compound (Inhibition rate) was calculated by the following equation:
Inhibition rate (%)=100×(administration group−control group)/(normal group−control group)

ovariectomized rats = assay: Action on ovariectomized rats (postmenopausal osteoporosis model), bone density by p-QCT; format: in vivo, rat; conditions: ovariectomized SD female rats, 300 mg/kg once a day for 4 weeks; average ± SD; control 543.7 ± 31.4, false operation 658.8 ± 46.3; P < 0.01 vs control
Description: The ovariectomized rats were employed as models of postmenopausal osteoporosis, for evaluating the compound of the invention. (2) Experimental Procedures
The ovaries on both sides were removed surgically in SD female rats (age; 13 weeks). From the next day, a test compound (compound of Example 5) was administered at 300 mg/kg to the rats once a day for 4 weeks (administration group: 8 rats). After the last administration was complete, the fourth vertebrae lumbale was taken out, and the total bone density was measured by means of p-QCT (Peripheral Bone Density-Measuring Apparatus) and compared with the bone density of the control group (7 rats). In addition, rats treated by false-operation were also subjected to the same measurement, […]

[2] = Rattus norvegicus, po, 15 mg/kg p.o., read-out: Measured Plasma Ca Concentration (Ca decrease rate)

Row | Compound | change in vivo at 15 mg/kg [1, 2] [%] | pIC50 (Cathepsin B) | pIC50 (Cathepsin L) | other results
1 | CO[C@H](c1ccccc1)[C@H](CC(C)C)NC(=O)[C@H]1O[C@@H]1C(=O)O [Example 11, (2S,3S)-3-[[1-(S)-[α-(R)-methoxybenzyl]-3-methylbutyl]-carbamoyl]oxirane-2-carboxylic Acid] | -17.3 | 7.07 | 7.74 | 
2 | CCOC(=O)[C@H]1O[C@@H]1C(=O)N[C@@H](CC(C)C)[C@H](O)c1ccccc1 [Example 1a, Ethyl (2S,3S)-3-[[1-(S)-[α-(R)-hydroxybenzyl]-3-methyl-butyl]carbamoyl]oxirane-2-carboxylate] | -12.5 |  |  | 
3 | CCOC(=O)[C@H]1O[C@@H]1C(=O)N[C@@H](CC(C)C)C(=O)c1ccccc1 [Example 7, Ethyl (2S,3S)-3-[[1-(S)-benzoyl-3-methylbutyl]carbamoyl]-oxirane-2-carboxylate] | -13.6 |  |  | 
4 | CC(C)C[C@@H](COCc1ccccc1)NC(=O)[C@H]1O[C@@H]1C(=O)O [Example 24, Sodium (2S,3S)-3-[[1-(S)-benzyloxymethyl-3-methylbutyl]-carbamoyl]oxirane-2-carboxylate] |  | 7.55 | 8.16 | 
5 | CC(C)C[C@@H](CO)NC(=O)[C@H]1O[C@@H]1C(=O)O [Example 12, (2S,3S)-3-[[1-(S)-hydroxymethyl-3-methylbutyl]carbamoyl]-oxirane-2-carboxylic Acid] |  | 7.00 | 7.03 | 
6 | CCOC(=O)[C@H]1O[C@@H]1C(=O)N[C@H](COCC(C)C)CC(C)C [Example 18a, Ethyl (2S,3S)-3-[[1-(S)-isobutoxyrethyl-3-methylbutyl]-carbamoyl]oxirane-2-carboxylate] |  |  |  | Measured Plasma Ca Concentration (Ca decrease rate) ([1]; 15 mg/kg p.o.): −24.5%
7 | CCOC(=O)[C@H]1O[C@@H]1C(=O)N[C@H](COCc1ccccc1)CC(C)C [Example 17, Ethyl (2S,3S)-3-[[1-(S)-benzyloxymethyl-3-methylbutyl]-carbamoyl]oxirane-2-carboxylate] | -15.4 |  |  | 
8 | CC(C)C[C@H](NC(=O)[C@H]1O[C@@H]1C(=O)O)[C@H](O)c1ccccc1 [Example 2, (2S,3S)-3-[[1-(S)-[α-(R)-hydroxybenzyl]-3-methylbutyl]-carbamoyl]oxirane-2-carboxylic acid] |  | 6.92 | 7.96 | 
9 | CCOC(=O)[C@H]1O[C@@H]1C(=O)N[C@H](C(=O)c1ccccc1)C(C)C [Example 8, Ethyl (2S,3S)-3-[[1-(S)-benzoyl-2-methylpropyl]-carbamoyl]oxirane-2-carboxylate] | -15.8 |  |  | 
10 | CO[C@H](c1ccccc1)[C@H](CC(C)C)NC(=O)[C@H]1O[C@@H]1C(=O)OC(C)C [Example 14, Isopropyl (2S,3S)-3-[[1-(S)-[α-(R)-methoxybenzyl]-3-methylbutyl]carbamoyl]oxirane-2-carboxylate] |  |  |  | change in vivo at 5 mg/kg ([1]; Rattus norvegicus, po, 5 mg/kg p.o., read-out: Measured Plasma Ca Concentration (Ca decrease rate)): -9.9%
11 | CCOC(=O)[C@H]1O[C@@H]1C(=O)N[C@@H](CC(C)C)[C@H](OC)c1ccccc1 [Example 5, Ethyl (2S,3S)-3-[[1-(S)-[α-(R)-methoxybenzyl]-3-methyl-butyl]carbamoyl]oxirane-2-carboxylate] | -20.4 |  |  | Inhibition of expansion of the hind paw (Inhibition rate) (Rat adjuvant arthritis): 42%; melting point: 108 to 109 °C; Total bone density of the fourth vertebrae lumbale (ovariectomized rats): 617.8 ± 37.9 mg/mL
12 | CCOC(=O)[C@H]1O[C@@H]1C(=O)N[C@@H](CC(C)C)[C@H](OC(C)=O)c1ccccc1 [Example 13, Ethyl (2S,3S)-3-[[1(S)-[α-(R)-acetoxybenzyl]-3-methyl-butyl]carbamoyl]oxirane-2-carboxylate] | -14.7 |  |  | 
13 | CC(C)C[C@H](NC(=O)[C@H]1O[C@@H]1C(=O)O)[C@H](OCc1ccccc1)c1ccccc1 [Example 22, (2S,3S)-3-[[1-(S)-[α-(R)-(benzyloxy)benzyl]-3-methyl-butyl]carbamoyl]oxirane-2-carboxylic Acid] |  | 7.39 | 8.48 | 
14 | O=C(O)[C@H]1O[C@@H]1C(=O)N[C@H](COCc1ccccc1)Cc1ccccc1 [Example 23] |  |  | 7.96 | 
15 | CCC(C)[C@H](NC(=O)[C@H]1O[C@@H]1C(=O)O)[C@H](O)c1ccccc1 (stereo partly drawn) [Example 9, (2S,3S)-3-[[1-(S)-[α-(R)-hydroxybenzyl]-2-methylbutyl]carbamoyl]oxirane-2-carboxylic acid] |  | 6.68 | 7.24 | 
